Test results reported in patent EP0381422B1, “Tetrahydrobenzimidazole derivatives” (YAMANOUCHI PHARMACEUTICAL CO. LTD., priority 1989, dated 1990).

Tested on: 5-HT3 receptor
Assay: Antagonism against 5-HT3-receptor: inhibition of serotonin-induced Bezold-Jarish (BJ) reflex in anesthetized rats
Type: in vivo, Wistar male rats
Procedure: Antagonism Against 5-HT3-Receptor
Nine-week-old Wistar male rats were anesthetized by intravenous injection of 1 g/kg of urethane, and blood pressure and heart rate were measured under artificial respiration. Transient reduction in heart rate and blood pressure induced by intravenous administration of serotonin or 2-methylserotonin which is a selective agonist of 5-HT3 was taken as an index of the reaction via 5-HT3 receptor [Bezold-Jarish reflex; Paintal, A.S., Pysiolo. Rev., Vol. 53, p.
Inhibitory activity of compounds of the present invention on serotonin-induced Bezold-Jarish (BJ) reflex in rats is shown in Table 1.

| SMILES | BJ Reflex Inhibitory Activity (ED50; µg/kg, i.v.) |
| --- | --- |
| O=C(C1CCc2nc[nH]c2C1)n1c(=O)[nH]c2ccccc21 (centres unmarked) [Example 9, 1-[(4,5,6,7-tetrahydrobenzimidazol-5-yl)carbonyl]-2,3-dihydrobenzimidazol-2-one] | 0.80 µg/kg |
| O=C(C1CCc2nc[nH]c2C1)N1CCc2ccccc21.O=C(O)/C=C/C(=O)O (centres unmarked) [Example 2, 5-[(2,3-Dihydroindol-1-yl)carbonyl]-4,5,6,7-tetrahydrobenzimidazole fumarate] | 0.29 µg/kg |
